As usually defined, the inhibition is how much of the control response was suppressed.

Consider eleven compounds from patent publication US10668051B2, “Modulators of calcium release-activated calcium channel” (Rhizen Pharmaceuticals SA, priority 2009, dated 2020).

Experiment [1] addresses T1, CRAC channels (Homo sapiens (Human), UniProt Q96D31). Nature of the experiment: In-vitro CRAC channel inhibition assay in Jurkat cells (thapsigargin-induced calcium influx). The format is cell-based. The gist of the method:
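Jurkat cells given test compounds in Ca2+/Mg2+-free Hanks buffer for 15 min, then thapsigargin (1 μM final) for 15 min to deplete ER stores. IC50 from percent inhibition of thapsigargin-induced Ca2+ influx.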

The test system of experiment [2] is IL-2. Put plainly: Inhibition of cytokine release in Human Whole Blood: IL-2. The format is cell-based. To be noted: Con A + PMA, 20 h, ELISA, read-out: IC 50 Human Whole Blood IL-2. As for the experimental part: (§1) 2. In Vitro Inhibition of Cytokine Release in Jurkat Cells, Human Whole Blood and Peripheral Blood Mononuclear Cells (PBMC).
(§2) Inhibition of cytokine IL-2, IL-4, IL-5 and TNF α was determined as described below. • a. Inhibition of IL-2 in Jurkat cells: Cells were incubated with desired concentrations of the inhibitor for 15 min. Cytokine release was induced by the addition of Concanavalin A (25 μg/ml)+Phorbol Myristate Acetate (50 ng/ml) for IL-2 & TNFα or with Phytohemagglutinin ([…]) for IL-4 & IL-5 and incubated at 37° C. in an atmosphere containing […]. Supernatant was collected after 20 h (IL-2 & TNFα) or 48 h (IL-4 & IL-5) for estimation of cytokines by ELISA. Data were analysed using GraphPad Prism. IC50 values for each compound were determined based on the percent inhibition due to the test compound compared to the control. • b. Inhibition of cytokine release in Human Whole Blood (HWB): Freshly collected HWB was diluted with RPMI medium (1:4.5) and added to a 96-well plate. Wells were incubated with desired concentrations of the inhibitor for 15 min. Cytokine release was induced by the addition of Concanavalin A (25 μg/ml)+Phorbol Myristate Acetate (50 ng/ml) for IL-2 & TNFα or with Phytohemagglutinin (5 μg/ml) for IL-4 & IL-5 and incubated at 37° C. in an atmosphere containing […]. Supernatant was collected after 20 h (IL-2 & TNFα) or 48 h (IL-4 & IL-5) for estimation of cytokines by ELISA. Data were analysed using GraphPad Prism. IC50 values for each compound were determined based on the percent inhibition due to the test compound compared to the control. • c. Inhibition of cytokine release in PBMC: PBMC from freshly collected HWB were isolated by density gradient using Histopaque and seeded in a 96-well plate. Cells were incubated with desired concentrations of the inhibitor for 15 min. Cytokine release was induced by the addition of Concanavalin A (25 μg/ml)+Phorbol Myristate Acetate (50 ng/ml) for IL-2 & TNFα or with Phytohemagglutinin (5 μg/ml) for IL-4 & IL-5 and incubated at 37° C. in an atmosphere containing […]. Supernatant was collected after 20 h (IL-2 & TNFα) or 48 h (IL-4 & IL-5) for estimation of cytokines by ELISA. Data were analysed using GraphPad Prism. IC50 values for each compound were determined based on the percent inhibition due to the test compound compared to the control.
Background: In an ELISA, binding on a coated surface is turned into a signal by an enzyme label.

Experiment [3] has as its system IL-5. Put plainly: Inhibition of cytokine release in Human Whole Blood: IL-5. The class given is cell-based. To be noted: Phytohemagglutinin, 48 h, ELISA, read-out: IC 50 Human Whole Blood IL-5. As for the experimental part:
as §1, §2

Experiment [4] concerns IL-2. Nature of the experiment: Inhibition of cytokine release in PBMC: IL-2. To be noted: Homo sapiens, Con A + PMA, 20 h, ELISA, read-out: IC 50 PBMC IL-2. The class given is cell-based. As for the experimental part: as §1, §2
Experiment [5] deals with IL-5. Put plainly: Inhibition of cytokine release in PBMC: IL-5. As to conditions: Homo sapiens, Phytohemagglutinin, 48 h, ELISA, read-out: IC 50 PBMC IL-5. The format is cell-based. Here is the method: as §1, §2
The target of experiment [6] is T1, CRAC channels. Put plainly: In-vitro CRAC channel inhibition assay in NCI-H460 cancer cell line (Ca assay). The class given is cell-based. To be noted: thapsigargin-induced calcium influx, NCI-H460 cells. Here is the method:
1B. In-Vitro CRAC Channel Inhibition Assay in NCI-H460 Cancer Cell Line
Inhibition of CRAC channels was determined following thapsigargin (Sigma, Cat #T9033) induced endoplasmic calcium release in NCI-H460 cells (National Centre For Cell Science (NCCS), Pune).
Cells (30,000 per well) were plated overnight in complete RPMI medium. Medium was substituted with Ca^2+ and Mg^2+ free Hanks buffer and Fluo-8 NW dye (ABD Bioquest, Inc., Sunnyvale, Calif.) loading solution in 96-well black plate. Plate was incubated at 37° C./5% CO2 for 30 min followed by further 15 min incubation at room temperature. Test compounds (DMSO stocks diluted in Ca^2+ and Mg^2+ free Hanks buffer) at desired concentrations were added to the wells and incubated for 15 min. Thapsigargin (1 μM final concentration) was added to the wells and incubated for 15 min to inhibit the Sarco-endoplasmic reticulum Ca^2+ ATPase pump thereby depleting endoplasmic calcium and raising cytosolic calcium concentrations. Store-operated calcium entry was initiated by adding extracellular Ca^2+ to a final concentration of 2.5 mM. Fluorescence was monitored over 30 min on a plate reader (BMG Labtech., Germany) with excitation at 485 nm and an emission wavelength at 520 nm. Data were analyzed using GraphPad Prism. IC50 for each compound was determined based on the percent inhibition of Thapsigargin-induced calcium influx into cells.

The subject of experiment [7] is NCI-H460 cancer cell line. Nature of the experiment: In-vitro cell proliferation assay in NCI-H460 cancer cell line (MTT). The class given is cell-based. As to conditions: Homo sapiens, 10 μM, 48 h. As for the experimental part: 1C. In-Vitro Cell Proliferation Assay in NCI-H460 Cancer Cell Line (Anticancer Activity)
Growth inhibition assays were carried out using 10% FBS supplemented media. Cells were seeded at a concentration of 5000 cells/well in a 96-well plate. Test compound at a concentration range from 0.01 to 10000 nM were added after 24 h. Growth was assessed using the 3-[4,5-dimethylthiazol-2-yl]-2,5-diphenyltetrazolium bromide (MTT) dye reduction test at 0 h (prior to the addition of the test compound) and 48 h after the addition of test compound. Absorbance was read on a Fluostar Optima (BMG Labtech, Germany) at a wave length of 450 nm. Data were analysed using GraphPad Prism. IC-50 for each compound was determined based on the % inhibition due to the test compound compared to the control.
For methods of cell proliferation assay, see, for example, Mosmann. T., Journal of Immunological Methods, 65(1-2), 55-63, (1983).

The subject of experiment [8] is TNFα. Nature of the experiment: Inhibition of cytokine release in Human Whole Blood: TNFα. To be noted: Con A + PMA, 20 h, ELISA, read-out: IC 50 Human Whole Blood TNFα. The class given is cell-based. Here is the method: as §1, §2
The subject of experiment [9] is TNFα. Nature of the experiment: Inhibition of cytokine release in PBMC: TNFα. The class given is cell-based. As to conditions: Homo sapiens, Con A + PMA, 20 h, ELISA, read-out: IC 50 PBMC TNFα. As for the experimental part: as §1, §2
The test system of experiment [10] is IL-4. Nature of the experiment: Inhibition of cytokine release in PBMC: IL-4. The format is cell-based. As to conditions: Homo sapiens, Phytohemagglutinin, 48 h, ELISA, read-out: IC 50 PBMC IL-4. As for the experimental part:
as §1, §2

Experiment [11] relates to IL-2. Nature of the experiment: Inhibition of IL-2 in Jurkat cells. As to conditions: Homo sapiens, Con A + PMA, 20 h, ELISA, read-out: IC 50 Jurkat IL-2. The class given is cell-based. Here is the method: as §1, §2
Experiment [12] relates to IL-4. Nature of the experiment: Inhibition of cytokine release in Human Whole Blood: IL-4. The format is cell-based. As to conditions: Phytohemagglutinin, 48 h, ELISA, read-out: IC 50 Human Whole Blood IL-4. As for the experimental part: as §1, §2
For experiment [13], the system named is CRAC channels over the voltage operated channels (VOC). As to conditions: Yasurio Yonetoky et al.; cited from earlier work.

T1 sequence (Q96D31 whole entry): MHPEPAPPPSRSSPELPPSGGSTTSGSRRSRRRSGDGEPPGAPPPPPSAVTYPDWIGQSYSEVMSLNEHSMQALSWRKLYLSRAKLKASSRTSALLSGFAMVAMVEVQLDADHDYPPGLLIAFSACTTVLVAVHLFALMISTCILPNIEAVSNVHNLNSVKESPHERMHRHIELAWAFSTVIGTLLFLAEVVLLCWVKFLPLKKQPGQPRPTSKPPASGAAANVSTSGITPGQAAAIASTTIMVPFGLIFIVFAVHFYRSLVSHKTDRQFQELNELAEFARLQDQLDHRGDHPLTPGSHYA

As to `Cc1nnsc1C(=O)Nc1ccc(-n2nc(C3CC3)cc2C2CC2)c(F)c1` [Example 28, N-[4-(3,5-dicyclopropyl-1H-pyrazol-1-yl)-3-fluorophenyl]-4-methyl-1,2,3-thiadiazole-5-carboxamide], at CRAC channels [1], the inhibition at 1 µM amounted to 100%. Also, the IC50 in the experiment on IL-2 [2] is 0.6 µM; with IL-5 [3] it was 0.0463 µM; in the experiment with IL-2 [4], 0.0543 µM; in the experiment on IL-5 [5] it was 0.198 µM.
Turning to `Cc1ncsc1C(=O)Nc1ccc(-n2nc(C(F)(F)F)cc2C2CC2)cc1` [Example 53, N-{4-[5-cyclopropyl-3-(trifluoromethyl)-1H-pyrazol-1-yl]phenyl}-4-methylthiazole-5-carboxamide], the figures for the inhibition at 1 µM on CRAC channels [1] and on CRAC channels [6] were 99.4% and 84.6%, respectively. Further, 10 µM produced 22% inhibition in experiment [7]. Also, the IC50 was 0.274 µM with IL-2 [2]; 0.125 µM with TNFα [8]; 0.0618 µM in the experiment on IL-5 [3]; 0.0213 µM with IL-2 [4]; 0.121 µM with TNFα [9]; 0.146 µM with IL-5 [5]. Also, the IC50 with IL-4 [10] was determined as 0.0799 µM.
Consider `Cc1ncsc1C(=O)Nc1ccc(-n2nc(C(F)(F)F)cc2C2CC2)c(F)c1` [Example 83, N-{4-[5-cyclopropyl-3-(trifluoromethyl)-1H-pyrazol-1-yl]-3-fluorophenyl}-4-methylthiazole-5-carboxamide], for which the inhibition at 1 µM on CRAC channels [1] came to 100%. The IC50 in the experiment with IL-2 [11] is 0.0579 µM; in the experiment with IL-2 [2], 0.132 µM; in the experiment with TNFα [8], 0.546 µM; with IL-2 [4], 0.0157 µM; in the experiment on TNFα [9], 0.0868 µM; in the experiment with IL-4 [10], 0.352 µM.
As to `O=C(Nc1ccc(-n2nc(C(F)(F)F)cc2C2CC2)c(F)c1)c1c(F)cccc1F` [Example 88, N-{4-[5-cyclopropyl-3-(trifluoromethyl)-1H-pyrazol-1-yl]-3-fluorophenyl}-2,6-difluorobenzamide], the inhibition at 1 µM at CRAC channels [1] turned out to be 100%. Further, the IC50 is 0.229 µM in the experiment with IL-2 [2] and 0.26 µM with IL-4 [12].
On to `Cc1ncncc1C(=O)Nc1ccc(-n2nc(C(F)(F)F)cc2C2CC2)c(F)c1` [Example 93, N-{4-[5-cyclopropyl-3-(trifluoromethyl)-1H-pyrazol-1-yl]-3-fluorophenyl}-4-methylpyrimidine-5-carboxamide], for which, on CRAC channels [1], the inhibition at 1 µM came to 90%. In addition, the IC50 in the experiment on IL-2 [11] was 0.14 µM; in the experiment on IL-2 [2], 0.0651 µM; in the experiment on TNFα [8], 0.148 µM; in the experiment with IL-5 [3], 0.173 µM; with IL-4 [12], 0.142 µM; with IL-2 [4] it was 0.0529 µM. For the same compound, the IC50 came to 0.0668 µM in the experiment on TNFα [9], 0.14 µM in the experiment with IL-5 [5] and 0.264 µM with IL-4 [10].
In the case of `O=C(Nc1c(F)cccc1F)c1ccc(-n2nc(C(F)(F)F)cc2C2CC2)c(F)c1` [Example 100, 4-[5-cyclopropyl-3-(trifluoromethyl)-1H-pyrazol-1-yl]-N-(2,6-difluorophenyl)-3-fluorobenzamide], the inhibition at 1 µM at CRAC channels [1] turned out to be 86.7%. The IC50 was found to be 0.0778 µM in the experiment on IL-2 [2], 0.0564 µM in the experiment with IL-5 [3], 0.256 µM in the experiment on IL-4 [12] and 0.0314 µM in the experiment on IL-2 [4].
With `Cc1ccccc1C(=O)Nc1ccc(-n2nc(C(F)(F)F)cc2C2CC2)nc1` [Example 104, N-{6-[5-cyclopropyl-3-(trifluoromethyl)-1H-pyrazol-1-yl]pyridin-3-yl}-2-methylbenzamide], the inhibition at 1 µM on CRAC channels [1] worked out at 100%. Besides, the IC50 worked out at 0.0575 µM with IL-2 [11]; 0.0961 µM in the experiment on IL-2 [2]; 0.582 µM with TNFα [8]; 0.0667 µM in the experiment with IL-2 [4]; 0.0211 µM with TNFα [9].
Turning to `O=C(Nc1ccc(-n2nc(C(F)(F)F)cc2C2CC2)nc1)c1ccccc1F` [Example 106, N-(6-(5-cyclopropyl-3-(trifluoromethyl)-1H-pyrazol-1-yl)pyridin-3-yl)-2-fluorobenzamide], at CRAC channels [1], the inhibition at 1 µM worked out at 100%. Besides, the IC50 in the experiment on IL-2 [11] came out at 0.0605 µM; in the experiment with IL-2 [2], 0.0836 µM; in the experiment with IL-2 [4] it was 0.0115 µM; with TNFα [9] it was 0.105 µM.
On to `O=C(Nc1ccc(-n2nc(C(F)(F)F)cc2C2CC2)nc1)c1c(F)cccc1F` [Example 108, N-{6-[5-cyclopropyl-3-(trifluoromethyl)-1H-pyrazol-1-yl]pyridin-3-yl}-2,6-difluorobenzamide], for which the inhibition at 1 µM at CRAC channels [1] came out at 96.2%. Further, the IC50 with IL-2 [2] is 0.138 µM; with TNFα [8], 0.0384 µM; in the experiment on IL-5 [3], 0.0198 µM; in the experiment on IL-4 [12] it was 0.143 µM; in the experiment on IL-2 [4], 0.0175 µM; in the experiment on TNFα [9] it was 0.0165 µM. Moreover, the IC50 with IL-5 [5] was 0.0206 µM; in the experiment on IL-4 [10], 0.0558 µM.
Turning to `C[C@]12C=CC(=O)C=C1CC[C@@H]1[C@@H]2[C@@H](O)C[C@@]2(C)[C@H]1CC[C@]2(O)C(=O)CO` [Prednisolone, reference compound], the figures for the IC50 in the experiment with IL-2 [11], in the experiment on IL-2 [2] and in the experiment on IL-2 [4] were 0.0355 µM, 0.0772 µM and 0.00372 µM, respectively.
Take `Cc1nnsc1C(=O)Nc1ccc(-n2nc(C(F)(F)F)cc2C(F)(F)F)cc1` [YM-58483]: the “selective index CRAC channels over VOC” value in [13] was 31.
